In US20090239860A1, “NOVEL BENZOFURAN DERIVATIVE, MEDICINAL COMPOSITION CONTAINING THE SAME, AND USES OF THESE” (priority 2004, published 2009):

Tests used:
[1] = biological target: T1, human adenosine A2A receptor (Homo sapiens, UniProt P29274); assay: Measurement of antagonistic action for human adenosine A2A receptor (inhibition of NECA-induced cAMP production in transfected CHO-K1 cells); assay type: cell-based; conditions: human adenosine A2A receptor-expressed CHO-K1 cells, Ki from IC50 and Km for NECA
T1 construct: expressed in transfected cells; host or cells: CHO-K1 (Chinese hamster ovary-K1), transient transfection with Lipofectamine 2000
Description: Measurement of Antagonistic Action for Human Adenosine A2a Receptor
1) Preparation of Human Adenosine A2a Receptor-Expressed Cells
When Chinese hamster ovary-K1 (CHO-K1) cells were grown to subconfluence, they were treated with trypsin and suspended in D-MEM/F-12 medium (Invitrogen) including 10% fetal bovine serum (Sankojunyaku). The expression vector of human adenosine A2A receptor prepared in OPTI-MEM I (Invitrogen) and the transfection reagent of Lipofectamine 2000 (Invitrogen) were added to the cell suspension, and those cells were inoculated in poly-D-lysine-coated 96-well plates (5×10^4 cells/well). After incubating the plates for 24-30 hours at 37° C. in a humidified atmosphere with 5% CO2, they were used for the subsequent assays.
2) Measurement of the Inhibitory Effect on Human Adenosine A2a Receptor Activity
A test compound was dissolved in dimethyl sulfoxide (DMSO) and the resulting solution was added to D-MEM/F-12 medium supplemented with 2.5 unit/mL adenosine deaminase (Carbiochem) and 30 μM rolipram (Sigma), a phosphodiesterase inhibitor to prepare a solution of the test compound. Adenosine deaminase was used for the inactivation of adenosine derived from the cells.
The human adenosine A2A-expressed cells inoculated in the 96-well plates were washed twice with 150 μL/well of D-MEM/F-12 medium and a 50-μL aliquot of the test compound solution was then added to each well of the plates. After incubating the cells for 10 minutes at 37° C. in a humidified atmosphere with 5% CO2, a 50-μL aliquot of 1.2 nM 5′-N-ethylcarboxyamideadenosine (NECA; Sigma) including 2.5 unit/mL adenosine deaminase and 30 μM rolipram was added to each well of the plates and incubated for 25 minutes at 37° C. in a humidified atmosphere with 5% CO2. Stopping the reaction and the subsequent measurement of cAMP were performed by use of a cAMP enzyme-linked immunosorbent assay kit (Applied Biosystem). The chemoluminescence was measured by a Microplate Luminometer TR717 (Applied Biosystem). The experiments were carried out in duplicate wells.
Inhibitory rate of a test compound for NECA-induced cAMP production was found by the following formula:
Inhibitory rate (%)=[1−{(cAMP level with a test compound and NECA)−(cAMP level without a test compound and NECA)}/{(cAMP level with NECA)−(cAMP level without a test compound and NECA)}]×100
Using a Km value for NECA found by the measurement in the same plate as that of test compounds, an inhibitory constant Ki was found by the following formula: […]

[2] = system: Haloperidol-induced catalepsy in rats; assay: Haloperidol-induced catalepsy in rats (horizontal bar test); assay type: in vivo, rat; conditions: male rats; compound 10 mg/kg orally in PEG400 2 hours before measurement; 5 hours after 1 mg/kg i.p. haloperidol; maximum 180 seconds (control 180.0)
Description: Haloperidol-Induced Catalepsy in Rats
The effect of a compound on drug-induced catalepsy in rats was evaluated. Parkinson's disease is a movement disorder reflecting a decline in striatal dopamine due to the degeneration of dopaminergic neuron arising from the sbstantia nigra. When haloperidol, a blocker of dopamine D2 receptor is administered in rats, the drug induces catalepsy which is considered as one of the Parkinson's disease-like symptoms since haloperidol blocks the neurotransmission of dopaminergic neuron. Male rats (Crj: CD(SD)IGS, bodyweight: 210-260 g, Charles River Japan, Inc.) were used for the experiments. Three to five rats for each group were tested for catalepsy 5 hours after intraperitoneal administration of 1 mg/kg haloperidol (Serenace (registered mark); Dainippon Pharma), a dopamine D2 antagonist. Catalepsy was measured using the horizontal bar test (Morelli and Chiara, “Eur. J. Pharmacol.”, vol. 117, p. 179-185 (1985)). A compound (10 mg/kg) was dissolved in PEG400 and administered orally 2 hours prior to the measurement of catalepsy. PEG400 was also administered orally to the rats for the control group. The front feet of the rats were placed on a horizontal bar (3 mm in diameter) suspended 10-12 cm above a platform and their rear feet were placed on the platform. The degree of catalepsy produced in the rats was measured by how long it took for their front feet to remove themselves from the bar. A maximum of 180 seconds was allowed.

T1 sequence (P29274 whole entry): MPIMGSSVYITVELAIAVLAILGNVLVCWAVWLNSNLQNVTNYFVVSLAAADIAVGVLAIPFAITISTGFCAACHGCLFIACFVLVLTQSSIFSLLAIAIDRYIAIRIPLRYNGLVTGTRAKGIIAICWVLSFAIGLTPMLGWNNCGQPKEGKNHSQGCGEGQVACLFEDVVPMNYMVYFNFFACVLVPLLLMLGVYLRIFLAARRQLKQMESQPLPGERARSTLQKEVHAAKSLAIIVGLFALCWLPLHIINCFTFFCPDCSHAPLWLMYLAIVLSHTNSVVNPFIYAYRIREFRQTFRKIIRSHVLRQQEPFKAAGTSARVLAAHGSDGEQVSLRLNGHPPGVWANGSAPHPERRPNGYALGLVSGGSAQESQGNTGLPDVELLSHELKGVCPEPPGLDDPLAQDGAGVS

SMILES	Ki [1]	Duration of catalepsy [2]
Cc1cccc(C(=O)Nc2c(C(N)=O)oc3ccc(F)cc23)c1 [Compound 1-36]	6.4 nM	–
CC(O)c1ccc(C(=O)Nc2c(C(N)=O)oc3ccc(F)cc23)o1 (stereo not shown) [Compound 6-2, 5-Fluoro-3-[5-(1-hydroxyethyl)furan-2-carbonyl]-aminobenzofuran-2-carboxamide]	1.1 nM	–
COc1ccc2c(NC(=O)c3cccc(CN4CCN(c5ccccc5)CC4)c3)c(C(N)=O)oc2c1 [Compound 2-1, 6-Methoxy-3-[3-(4-phenylpiperazin-1-ylmethyl)benzoylamino]-benzofuran-2-carboxamide]	8 nM	–
NC(=O)c1oc2cc(Cl)ccc2c1NC(=O)C1CC1 [Compound 1-153]	9.2 nM	–
NC(=O)c1oc2ccc(F)cc2c1NC(=O)COc1ccc(Cl)cc1 [Compound 1-145]	2.7 nM	–
CCc1ccc(C(=O)Nc2c(C(N)=O)oc3ccc(F)cc23)o1 [Compound 1-121]	0.8 nM	48.2 s
NC(=O)c1oc2c(F)cc(F)cc2c1NC(=O)c1ccc(CN2CCN(Cc3ccc4c(c3)OCO4)CC2)o1 [Compound 2-138]	2 nM	–
NC(=O)c1oc2cc(F)ccc2c1NC(=O)c1ccc2c(c1)OCO2 [Compound 1-91]	6.5 nM	–
NC(=O)c1oc2ccc(F)cc2c1NC(=O)C1CC1 [Compound 1-1, 3-Cyclopropanecarbonylamino-5-fluorobenzofuran-2-carboxamide]	8.5 nM	–
COc1ccc2c(NC(=O)c3ccc(CSc4nccn4C)cc3)c(C(N)=O)oc2c1 [Compound 2-7]	8.6 nM	–
NC(=O)c1oc2ccc(Cl)cc2c1NC(=O)C1CC1 [Compound 1-2, 3-Cyclopropanecarbonylamino-5-chlorobenzofuran-2-carboxamide]	4.1 nM	91.6 s
NC(=O)c1oc2ccc(F)cc2c1NC(=O)COCc1ccccc1 [Compound 1-150]	2.2 nM	–
CN1CCN(C(=O)c2cccc(C(=O)Nc3c(C(N)=O)oc4c(F)cc(F)cc34)c2)CC1 [Compound 1-275]	0.5 nM	–
NC(=O)c1oc2c(F)cc(F)cc2c1NC(=O)C1CC1 [Compound 1-155]	8.1 nM	38.3 s
NC(=O)c1oc2ccc(Cl)cc2c1NC(=O)c1ccco1 [Compound 1-108]	9.3 nM	–
COc1ccc2c(NC(=O)c3ccc(F)cc3)c(C(N)=O)oc2c1 [Compound 1-16]	0.9 nM	116.4 s
CC(C)(C)OC(=O)N1CCN(Cc2ccc(C(=O)Nc3c(C(N)=O)oc4c(F)cc(F)cc34)o2)CC1 [Compound 2-142, tert-butyl 4-[5-(2-carbamoyl-5,7-difluoro-benzofuran-3-ylcarbamoyl)furan-2-ylmethyl]piperazine-1-carboxylate]	2 nM	–
Cc1ccc(C(=O)Nc2c(C(N)=O)oc3c(F)cc(F)cc23)o1 [Compound 1-119]	1.9 nM	–
NC(=O)c1oc2c(F)cc(F)cc2c1NC(=O)Cc1ccccc1 [Compound 1-249]	4.6 nM	–
NC(=O)c1oc2c(F)cc(F)cc2c1NC(=O)c1ccco1 [Compound 1-109]	2.7 nM	–
NC(=O)c1oc2c(F)cc(F)cc2c1NC(=O)C1CCC1 [Compound 1-161]	7 nM	–
COc1ccc2c(NC(=O)c3ccc(-c4ccccc4)o3)c(C(N)=O)oc2c1 [Compound 1-133]	3.2 nM	–
NC(=O)c1oc2c(Cl)cc(F)cc2c1NC(=O)C1CC1 [Compound 1-156]	9.8 nM	–
CCc1ccc(C(=O)Nc2c(C(N)=O)oc3c(F)cc(F)cc23)o1 [Compound 1-125]	1.2 nM	–
NC(=O)c1oc2c(F)cc(F)cc2c1NC(=O)c1ccc(CN2CCN(Cc3ccccc3)CC2)o1 [Compound 2-129]	1.6 nM	–
COc1ccc2c(NC(=O)c3cccc(F)c3)c(C(N)=O)oc2c1 [Compound 1-15]	6.5 nM	–
COc1cc(F)cc2c(NC(=O)C3CC3)c(C(N)=O)oc12 [Compound 1-159]	3.3 nM	–
COCC(=O)Nc1c(C(N)=O)oc2cc(OC)ccc12 [Compound 1-141]	9.3 nM	–
NC(=O)c1oc2cc(F)ccc2c1NC(=O)c1ccc(Oc2ccccc2)nc1 [Compound 1-138]	4.5 nM	–
COc1ccc(C(=O)Nc2c(C(N)=O)oc3c(OC)cc(F)cc23)cc1 [Compound 1-213]	2.1 nM	–
